The source of these data is patent US20250197363A1, “THIADIAZOLE COMPOUND, AND PHARMACEUTICAL COMPOSITION FOR PREVENTING OR TREATING INFLAMMATORY DISEASES, INCLUDING SAME” (Cureverse Incorporated, priority 2022, published 2025).

SMILES strings stand for the structures. pEC50: −log10 of the molar value.

The target in the test is PPARδ ligand-binding domain (LBD) (Homo sapiens (Human), UniProt Q03181). The test is described as follows: PPARδ activation, TR-FRET coactivator peptide recruitment (enzyme activity EC50). The test is classed as biochemical. Conditions: GST-PPARδ LBD 5 nM, read-out: Enzymatic activity (EC50). On the technique in general: Time-resolved FRET reads energy transfer from a long-lived donor to a nearby acceptor.
PPARδ ligand-binding domain (LBD), sequence (Q03181 211-439): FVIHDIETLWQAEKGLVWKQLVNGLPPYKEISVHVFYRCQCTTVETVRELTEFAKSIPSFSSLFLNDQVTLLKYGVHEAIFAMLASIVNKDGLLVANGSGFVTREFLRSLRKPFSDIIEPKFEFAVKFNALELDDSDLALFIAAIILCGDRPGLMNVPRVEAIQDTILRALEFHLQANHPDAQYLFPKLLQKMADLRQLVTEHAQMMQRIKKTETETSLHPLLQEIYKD
As to `Cc1ccc(-c2nnc(CSc3ccc(OC(C)(C)C(=O)O)c(C)c3)s2)cc1` [Example 24, 2-methyl-2-(2-methyl-4-(((5-(p-tolyl)-1,3,4-thiadiazol-2-yl)methyl)thio)phenoxy)propanoic acid], the pEC50 (commonly the negative decadic logarithm of the EC50, by convention in mol/L) is 5.90.
For `Cc1cc(SCc2nnc(-c3ccc(OC(F)(F)F)cc3)s2)ccc1OC(C)(C)C(=O)O` [Example 27, 2-methyl-2-(2-methyl-4-(((5-(4-(trifluoromethoxy)phenyl)-1,3,4-thiadiazol-2-yl)methyl)thio)phenoxy)propanoic acid] the value was 6.23; for `Cc1cc(SCc2nnc(-c3cc(F)c(F)c(F)c3)s2)ccc1OCC(=O)O` [Example 15, 2-(2-methyl-4-(((5-(3,4,5-trifluorophenyl)-1,3,4-thiadiazol-2-yl)methyl)thio)phenoxy)acetic acid], 5.40.
For `Cc1cc(SCc2nnc(-c3ccc(C(F)(F)F)cc3)s2)ccc1OC(C)(C)C(=O)O` [Example 3, 2-methyl-2-(2-methyl-4-(((5-(4-(trifluoromethyl)phenyl)-1,3,4-thiadiazol-2-yl)methyl)thio)phenoxy)propanoic acid] the value was 6.43; for `Cc1cc(SCc2nnc(-c3ccc(C(F)(F)F)cc3)s2)ccc1OCC(=O)NC#N` [Example 8, N-cyano-2-(2-methyl-4-(((5-(4-(trifluoromethyl)phenyl)-1,3,4-thiadiazol-2-yl)methyl)thio)phenoxy)acetamide], 6.30; for `Cc1cc(SCc2nnc(-c3ccc(F)c(Cl)c3)s2)ccc1OCC(=O)O` [Example 16, 2-(4-(((5-(3-chloro-4-fluorophenyl)-1,3,4-thiadiazol-2-yl)methyl)thio)-2-methylphenoxy)acetic acid], 5.87.
For `Cc1cc(SCc2nnc(-c3ccc(C(F)(F)F)c(F)c3)s2)ccc1OC(C)(C)C(=O)O` [Example 21, 2-(4-(((5-(3-fluoro-4-(trifluoromethyl)phenyl)-1,3,4-thiadiazol-2-yl)methyl)thio)-2-methylphenoxy)-2-methylpropanoic acid] the value was 5.58.
As to `Cc1cc(SCc2nnc(-c3ccc(F)c(F)c3)s2)ccc1OCC(=O)O` [Example 12, 2-(4-(((5-(3,4-difluorophenyl)-1,3,4-thiadiazol-2-yl)methyl)thio)-2-methylphenoxy)acetic acid], the pEC50 was 6.18.
For `Cc1cc(SCc2nnc(-c3ccc(F)c(F)c3)s2)ccc1OC(C)C(=O)O` (centres unmarked) [Example 13, 2-(4-(((5-(3,4-difluorophenyl)-1,3,4-thiadiazol-2-yl)methyl)thio)-2-methylphenoxy)propanoic acid] the value was 5.21; for `Cc1cc(SCc2nnc(-c3ccc(OC(F)(F)F)cc3)s2)ccc1OCC(=O)O` [Example 25, 2-(2-methyl-4-(((5-(4-(trifluoromethoxy)phenyl)-1,3,4-thiadiazol-2-yl)methyl)thio)phenoxy)acetic acid], 7.38; for `Cc1ccc(-c2nnc(CSc3ccc(OC(C)C(=O)O)c(C)c3)s2)cc1` (centres unmarked) [Example 23, 2-(2-methyl-4-(((5-(p-tolyl)-1,3,4-thiadiazol-2-yl)methyl)thio)phenoxy)propanoic acid], 5.24.
Under `Cc1cc(SCc2nnc(-c3ccc(F)cc3)s2)ccc1OCC(=O)O` [Example 9, 2-(4-(((5-(4-fluorophenyl)-1,3,4-thiadiazol-2-yl)methyl)thio)-2-methylphenoxy)acetic acid] stands 5.61; under `Cc1cc(SCc2nnc(-c3ccc(C(F)(F)F)cc3)s2)ccc1OC(C)C(=O)O` (centres unmarked) [Example 2, 2-(2-methyl-4-(((5-(4-(trifluoromethyl)phenyl)-1,3,4-thiadiazol-2-yl)methyl)thio)phenoxy)propanoic acid], 6.38.
For `Cc1cc(SCc2nnc(-c3ccc(OC(F)(F)F)cc3)s2)ccc1OC(C)C(=O)O` (centres unmarked) [Example 26, 2-(2-methyl-4-(((5-(4-(trifluoromethoxy)phenyl)-1,3,4-thiadiazol-2-yl)methyl)thio)phenoxy)propanoic acid] the value was 5.91.
